Experimental data from publication PMC3816693, “Cell Penetration Properties of a Highly Efficient Mini Maurocalcine Peptide” (Pharmaceuticals, 2013).
Bridges are numbered along the chain shown (N, C = ends). Where no end group is shown, it is not given here.

Columns and labels:
[1] = system: glioma F98 cells; assay: Cell penetration of Cy5-labeled peptides by flow cytometry (FACS); assay type: cell-based, rat; settings: 2 h; for fold decrease in cell penetration efficacy relative to MCaUF1-9-C-Cy5: 3 µM, flow cytometry
Experimental: Undifferentiated malignant glioma rat (F98) cell line (from ATCC) was maintained at 37 °C in 5% CO2 in DMEM/F-12 nutrient medium (Invitrogen, Cergy Pontoise, France) supplemented with 2% (v/v) heat-inactivated fetal bovine serum (Invitrogen) and 100 µg/mL streptomycine and 100 units/mL penicillin (Invitrogen).
F98 cells were incubated with various concentrations of Cy5-labeled peptides in DMEM/F-12 culture medium without serum at 37 °C for 2 h. The cells were then washed with PBS to remove excess extracellular peptide and treated with 0.48 mM versene (Invitrogen) for 5 min at 37 °C to detach cells from the surface, and centrifuged at 200 g in DMEM/F-12 culture medium before suspension in PBS. For experiments concerning endocytosis inhibitors, F98 cells were initially preincubated in DMEM/F-12 culture medium without serum for 30 min at 37 °C with different inhibitors of endocytosis: (i) 100 µM amiloride, (ii) 5 µg/mL cytochalasin D (10 µM), (iii) 20 µM nocodazole, or (iv) 5 mM methyl-β-cyclodextrin (all from Sigma, Lyon, France). The cells were then incubated for 2 h at 37 °C with 1 µM MCaUF1-9-C-Cy5 in the presence of each drug. Flow cytometry analyses were performed with live cells using an Accuri C6 flow cytometer (BD Biosciences, Le Pont de Claix, France). Data were obtained and analyzed using CFlow Sampler (BD Biosciences). Live cells were gated by forward/side scattering from a total of 10,000 events.

[2] = cited from earlier work
Description: Even if the mechanism(s) of penetration of CPP are subject to debate, because of the rapidity of action of MCa on the ryanodine receptor, it appears clearly that one way of penetration of MCa can be membrane translocation. Furthermore, MCa has the ability to bind onto glycosaminoglycans, including heparin and heparan sulfates, with micromolar affinity.

[3] = high temperatures up to 100 °C or extreme pH values; cited from earlier work
Description: Maurocalcine (MCa) is a 33 amino acid residue peptide that was isolated in 2000 from the venom of the Tunisian chactid scorpion Scorpio maurus palmatus. It folds according to an ‘Inhibitor Cystine Knot’ (ICK) motif and contains three disulfide bridges connected by the following pattern: C1-C4, C2-C5 and C3-C6 [3]. Based on high amino acid sequence and pharmacological target similarities, MCa belongs to a larger family of scorpion toxins that also includes imperatoxin A (from Pandinus imperator), opicalcine 1 and opicalcine 2 (from Opistophthalmus carinatus), hemicalci ...

Row | Substance | fold decrease in cell penetration efficacy relative to MCaUF1-9-C-Cy5 [1] | cell penetration compared with TAT-C-Cy5 as standard ([1]; dose-response by flow cytometry) | affinity of binding onto glycosaminoglycans [2] | stability of structure against denaturation [3]
1 | MCaUF1-9(Q3)-C-Cy5: Abu3 replaced by Gln | 2.94 fold | behaved similarly to TAT |  | 
2 | Maurocalcine (GDCLPHLKLCKENKDCCSKKCKRRGTNIEKRCR; disulfide 10-21, 16-32, 3-17; UniProt P60254 1-33, looked up) [MCa] |  |  | micromolar | cannot be denatured
3 | MCaUF1-9(A3)-C-Cy5: Abu3 replaced by Ala | 1.08 fold |  |  | 
